ChEMBL document CHEMBL1201862, “PubChem BioAssay data set” (2004)
Where “and” joins values, the source holds several entries; their conditions need not be identical. Equal values may be shown once. Calls of active or inactive are those of the source.

Columns and labels:
[1] = inhibitors of intracellular T. cruzi replication, confirmation, NIH3T3 host cells, beta-gal luminescence (AID 2044); format: functional, cell-based;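 further: intracellular parasites grown in NIH/3T3 mouse fibroblasts as host cells; luminescent beta-galactosidase reporter signal from transgenic T. cruzi replicating inside host cells; inhibitors lower the luminescence signal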
[2] = cytotoxicity toward NIH3T3 fibroblasts, dose response, counter-screen, cell-based, ATP luminescence, mouse fibroblasts (AID 2010); format: functional;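 further: cells exposed to compound for about 90 hours before reading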
INS1 = assay: beta cell apoptosis inhibitors, cytokine rescue, dose response, luminescence, retest (AID 449756); format: functional, cell-based; conditions: Rattus norvegicus;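 further: cell death triggered by IL-1 beta plus TNF-alpha plus IFN-gamma mixture; protective hits raise ATP signal compared with cytokine alone wells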
Cytochrome P450 2C9 = Cytochrome P450 2C9 (Homo sapiens, UniProt P11712)
Cytochrome P450 2D6 = Cytochrome P450 2D6 (Homo sapiens, UniProt P10635);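 further: CYP2D6 member of a cytochrome P450 panel assay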
[3] = Luminescence Cell-Based Dose Retest to Confirm Inhibitors of Cancer Stem Cells. [Related pubchem assays (depositor defined):AID2717, AID2721]; format: functional; conditions: Homo sapiens
Cytochrome P450 1A2 = biological target: T1, Cytochrome P450 1A2 (Homo sapiens, UniProt P05177);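 further: PubChem cytochrome P450 panel assay, CYP1A2 panel member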
T1 sequence (P05177 whole entry): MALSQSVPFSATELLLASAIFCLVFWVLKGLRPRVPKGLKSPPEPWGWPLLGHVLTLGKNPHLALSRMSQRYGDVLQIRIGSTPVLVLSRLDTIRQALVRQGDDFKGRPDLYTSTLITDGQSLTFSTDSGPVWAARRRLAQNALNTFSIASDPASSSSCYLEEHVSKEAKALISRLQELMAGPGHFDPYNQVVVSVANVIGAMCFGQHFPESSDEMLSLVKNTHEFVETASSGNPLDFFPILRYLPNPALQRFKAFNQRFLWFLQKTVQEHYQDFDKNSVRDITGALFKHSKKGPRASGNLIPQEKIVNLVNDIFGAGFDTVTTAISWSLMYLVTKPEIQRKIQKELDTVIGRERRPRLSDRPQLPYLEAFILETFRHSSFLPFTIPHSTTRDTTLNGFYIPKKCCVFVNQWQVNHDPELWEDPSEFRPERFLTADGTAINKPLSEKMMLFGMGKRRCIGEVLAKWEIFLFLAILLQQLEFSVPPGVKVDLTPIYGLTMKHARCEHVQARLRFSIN

[4] = system: Streptococcus sp. 'group A'; assay: growth inhibition of control SK(-) GAS strain, dose response, counter-screen for streptokinase expression inhibitor project, luminescence, kanamycin, BacTiterGlo, confirmation (AID 1900); format: functional, organism-based
Streptococcus = assay: Group A Streptococcus viability loss, dose response, counter-screen for streptokinase expression inhibitor project, luminescence, BacTiterGlo (AID 1915); format: functional, organism-based;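 further: potency for reduction of bacterial viability or growth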

Sequence of Cytochrome P450 2C9 (P11712 whole entry): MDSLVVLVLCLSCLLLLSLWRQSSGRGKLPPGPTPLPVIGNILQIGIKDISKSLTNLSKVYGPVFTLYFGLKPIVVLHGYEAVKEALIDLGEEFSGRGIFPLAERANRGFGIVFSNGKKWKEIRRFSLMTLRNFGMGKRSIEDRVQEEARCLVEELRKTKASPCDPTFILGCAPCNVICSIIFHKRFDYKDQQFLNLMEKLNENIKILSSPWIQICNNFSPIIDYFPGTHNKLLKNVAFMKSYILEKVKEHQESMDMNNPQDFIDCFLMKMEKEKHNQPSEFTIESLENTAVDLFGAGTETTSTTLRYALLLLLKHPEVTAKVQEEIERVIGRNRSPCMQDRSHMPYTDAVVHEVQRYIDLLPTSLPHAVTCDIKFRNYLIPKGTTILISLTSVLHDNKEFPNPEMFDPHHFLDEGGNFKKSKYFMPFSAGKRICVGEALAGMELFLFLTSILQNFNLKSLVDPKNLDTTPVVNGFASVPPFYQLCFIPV
Sequence of Cytochrome P450 2D6 (P10635 whole entry): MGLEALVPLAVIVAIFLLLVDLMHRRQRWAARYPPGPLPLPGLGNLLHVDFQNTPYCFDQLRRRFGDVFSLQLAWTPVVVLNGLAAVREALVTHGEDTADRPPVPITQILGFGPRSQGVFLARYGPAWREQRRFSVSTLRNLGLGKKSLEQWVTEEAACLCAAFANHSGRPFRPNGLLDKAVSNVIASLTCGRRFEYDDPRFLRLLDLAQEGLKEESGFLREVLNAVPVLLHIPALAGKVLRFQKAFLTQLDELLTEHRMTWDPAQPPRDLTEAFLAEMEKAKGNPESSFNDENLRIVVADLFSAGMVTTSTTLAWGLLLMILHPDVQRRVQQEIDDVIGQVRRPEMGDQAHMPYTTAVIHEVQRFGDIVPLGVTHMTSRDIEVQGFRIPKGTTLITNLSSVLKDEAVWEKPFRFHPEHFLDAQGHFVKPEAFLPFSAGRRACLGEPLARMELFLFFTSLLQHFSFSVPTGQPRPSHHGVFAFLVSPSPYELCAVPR

## CC1CCN(C(=O)C(=O)c2cn(CC(=O)N3CCCCCC3)c3ccccc23)CC1
[1]
  EC50: 1.26 µM (active)
[2]
  EC50: > 60 µM (not active)

## CC(=O)c1c(C)n(CC(=O)NCc2ccco2)c2ccccc12
INS1
  AC50: > 260 µM (inactive)

## O=C(CSc1ncnc2c1nnn2Cc1ccc(F)cc1)NC1CCCC1
[1]
  EC50: 3.93 µM (active)
[2]
  EC50: > 30 µM (not active)

## COc1cccc(C2=NOC(C(=O)Nc3cccnc3)C2)c1 (stereo unspecified)
Cytochrome P450 2C9
  AC50: 25.1 µM (inconclusive)

## FC(F)(F)c1cc(CN2CCCC3(CCNCC3)C2)cc(C(F)(F)F)c1
Cytochrome P450 2D6
  AC50: 12.6 µM (inconclusive)

## COc1cc2c(cc1NC(=O)c1cccc(S(=O)(=O)N(C)C)c1)oc1ccccc12
[3]
  AC50: 2.54 µM (active)

## CCOC(=O)C1(Cc2cccc(OC)c2)CCCN(Cc2c(C)nn(C(C)C)c2C)C1 (stereo unspecified)
[1]
  EC50: 1.19 µM (active)
[2]
  EC50: > 60 µM (not active)

## CCN(CC)c1ccc(S(=O)(=O)N2CCCCC2)cc1NC(=O)C1=COCCO1
[1]
  EC50: 7.54 µM (active)
[2]
  EC50: > 60 µM (not active)

## CC(Nc1nc(N2CCCCC2)nc2ccccc12)c1ccccc1 (stereo unspecified)
[1]
  EC50: 0.773 µM (active)
[2]
  EC50: 9.37 µM (active)

## CCN(CC)S(=O)(=O)c1ccc(N2CCN(c3ccccc3OC)CC2)c(N)c1
INS1
  AC50: 3.55 µM (active)

## O=c1c(CCc2ccccc2)nc2cnc(N3CCOCC3)nc2n1Cc1cccs1
Cytochrome P450 2C9
  AC50: 3.16 µM (inconclusive)

## CN(C)c1ncc2ncc(=O)n(CCc3ccccc3)c2n1
Cytochrome P450 2D6
  AC50: 39.8 µM (inconclusive)

## O=C(NCc1cccs1)c1cc(-c2ccncc2)nc2ccc(Br)cc12
[1]
  EC50: 2.66 µM (active)
[2]
  EC50: > 60 µM (not active)

## CCOc1ccccc1N1CCN(c2ncnc3scc(-c4ccc(OC)cc4)c23)CC1
[1]
  EC50: 2.44 µM (active)
[2]
  EC50: > 60 µM (not active)

## [O-][S+](Cc1ccc(Br)cc1)Cc1nnc(SCc2ccc(Cl)cc2)n1-c1ccccc1 (stereo unspecified)
Cytochrome P450 2D6
  AC50: 12.6 µM (inconclusive)
Cytochrome P450 1A2
  AC50: 25.1 µM (inconclusive)

## COc1cccc(Cn2c(=O)c(CCc3ccccc3)nc3cnc(N4CCNCC4)nc32)c1
Cytochrome P450 2D6
  AC50: 31.6 µM (inconclusive)
Cytochrome P450 1A2
  AC50: 12.6 µM (inconclusive)

## O=P(Oc1ccccc1)(Oc1ccccc1)N1CCN(c2ccc(F)cc2)CC1
INS1
  AC50: 19.4 µM (active)

## COc1ccccc1NS(=O)(=O)c1cc(NC(=O)Nc2ccc(Cl)cc2Cl)ccc1N1CCCCC1
[1]
  EC50: 1.58 µM (active)

## CN1CC[C@H](CN2c3ccccc3Sc3ccccc32)C1
Cytochrome P450 1A2
  AC50: 5.01 µM (inconclusive)

## CCN1C(=O)C(CC(=O)Nc2ccc(F)cc2)N(CCCN2CCN(c3ccc(F)cc3)CC2)C1=S (stereo unspecified)
[3]
  AC50: 3.1 µM (active)

## O=C(/C=C\NCC(=O)c1ccccc1)c1ccc(F)cc1
Cytochrome P450 2D6
  AC50: 15.8 µM (inconclusive)
Cytochrome P450 2C9
  AC50: 22.4 µM (inconclusive)

## O=C(Oc1ccccc1)N1CCC2(CCN(Cc3ccncc3)CC2)CC1
Cytochrome P450 1A2
  AC50: 25.1 µM (inconclusive)

## CN(C)C(=O)c1ccc(-c2nc(-n3ccnc3)c3ccccc3n2)cc1
Cytochrome P450 1A2
  AC50: 20 µM (inconclusive)

## CCn1c(N2CCN(S(=O)(=O)c3ccc(F)cc3)CC2)nc2ccccc21
[3]
  AC50: > 195 µM (inactive)

## CS(=O)(=O)Nc1cccc(-c2cncnc2NCc2ccccc2)c1
Cytochrome P450 2D6
  AC50: 20 µM (inconclusive)

## O=C(NCCOCCOCCNC(=O)c1cccnc1)c1cccnc1
INS1
  AC50: 2.55 µM (active)

## c1cc(CN2CCCCC2)cc(OCCCNc2nc3ccccc3s2)c1 [ZOLANTIDINE]
Cytochrome P450 1A2
  AC50: 31.6 µM (inconclusive) and 15.8 µM (inconclusive)

## CSc1cccc(NC(=S)N(CCCN2CCCC2)Cc2cccn2Cc2ccc(Cl)cc2)c1
[1]
  EC50: 2.25 µM (active)
[2]
  EC50: > 60 µM (not active)

## COc1ccc(-n2c(S)nnc2CNC(=O)c2ccc(S(=O)(=O)N3CCCC3)cc2)cc1
Cytochrome P450 2C9
  AC50: 20 µM (inconclusive)

## O=C(COc1ccc(F)cc1Cl)Nc1cc(S(=O)(=O)N2CCOCC2)ccc1N1CCCCC1
[1]
  EC50: 2.56 µM (active)
[2]
  EC50: > 60 µM (not active)

## O=C(NCC1CCCCC1)c1cc2ccccc2cc1O
[3]
  AC50: 5.19 µM (active)

## C=CCN1C(=O)CN=C1Nc1ccccc1
Cytochrome P450 1A2
  AC50: 28.2 µM (inconclusive)
Cytochrome P450 2C9
  AC50: 0.0708 µM (inconclusive)

## S=C(Nc1cccc(Br)c1)N1CCn2cccc2C1c1cccnc1 (stereo unspecified)
[1]
  EC50: 1.78 µM (active)
[2]
  EC50: > 60 µM (not active)

## Cc1cc(C)c(OCC(O)CNC(C)(C)C)c(C)c1 (stereo unspecified)
INS1
  AC50: > 120 µM (inactive)

## CC1(C)CC(NCCN2CCN(C3=CC(=C(C#N)C#N)CC(C)(C)C3)CC2)=CC(=C(C#N)C#N)C1
[1]
  EC50: 1.31 µM (active)
[2]
  EC50: > 60 µM (not active)

## CC(C)=CCC12Oc3cc(O)ccc3C1(O)Oc1cc3c(c(O)c1C2=O)C=CC(C)(C)O3 (stereo unspecified)
[4]
  EC50: 3.32 µM (active)
Streptococcus
  EC50: 3.92 µM (active)

## COC(=O)c1ccc(NC(=O)CCN2CCN(Cc3ccccc3)CC2)cc1
[1]
  EC50: 0.123 µM (active)
[2]
  EC50: > 60 µM (inconclusive)

## CN1CCN(S(=O)(=O)c2cc([N+](=O)[O-])ccc2N2CCCCCC2)CC1
Cytochrome P450 1A2
  AC50: 25.1 µM (inconclusive)

## Cc1ccc(-c2nc3cc(Br)cnc3nc2-c2ccc(C)cc2)cc1
[1]
  EC50: 2.68 µM (active)
[2]
  EC50: > 60 µM (not active)

## O=C(Cn1nnc(-c2ccccc2)n1)OCc1ccccc1
Cytochrome P450 2C9
  AC50: 8.91 µM (inconclusive)

## CCCOc1ccc(-c2nc(N3CCN(CC)CC3)c3ccccc3n2)cc1
[3]
  AC50: 5.57 µM (active)

## Cc1cccc(NC(NC(=O)c2cccnc2)C(Cl)(Cl)Cl)c1 (stereo unspecified)
Cytochrome P450 1A2
  AC50: 22.4 µM (inconclusive)

## CCCCCCSc1cc(-c2nc3ccc(C)cn3c2NCCCC)ccc1OC
[3]
  AC50: 5.12 µM (active)
INS1
  AC50: 7.09 µM (active)

## COc1ccc(-n2nnnc2SCC(=O)Nc2ccccc2)cc1
Cytochrome P450 2D6
  AC50: 2.51 µM (inconclusive)

## COc1ccc(Sc2ccc(-c3nc4cnccn4c3NC3CCCCC3)cc2OC)cc1
[3]
  AC50: 2.93 µM (active)

## Cc1cnc(NC(=O)CSc2ccc(Cl)cc2)s1
Cytochrome P450 2C9
  AC50: 20 µM (inconclusive)

## C=C[C@@H]1c2cccc(C)c2N(S(=O)(=O)c2ccc(C)cc2)[C@H](c2ccc(OC(C)=O)cc2)C1(C#N)C#N
[3]
  AC50: 5.13 µM (active)

## CCC(=O)Nc1ccccc1C(=O)OCC(=O)c1cccc2ccccc12
Cytochrome P450 2D6
  AC50: 0.0891 µM (inconclusive)

## Cc1ccc(-n2c(C)cc(C(=O)CSc3n[nH]c(N)n3)c2C)cc1
Cytochrome P450 2C9
  AC50: 6.31 µM (inconclusive)

## COc1ccccc1/C=C(/CC(=O)NCc1ccc2c(c1)OCO2)c1nc2ccccc2s1
[1]
  EC50: 2.19 µM (active)
[2]
  EC50: > 60 µM (not active)

## C[N+]1(C)CCC(=C(c2ccccc2)c2ccccc2)CC1
Cytochrome P450 2D6
  AC50: 12.6 µM (inconclusive)

## CC(C)=C[C@H]1[C@@H](C(=O)OCc2cc3c(cc2Cl)OCO3)C1(C)C
Cytochrome P450 2D6
  AC50: 5.01 µM (inconclusive)
Cytochrome P450 1A2
  AC50: 0.794 µM (inconclusive)
Cytochrome P450 2C9
  AC50: 3.16 µM (inconclusive)

## NC(=NCc1ccccc1)NC(=O)c1nc(Cl)c(N)nc1N [BENZAMIL]
Cytochrome P450 1A2
  AC50: 12.6 µM (inconclusive) and 10 µM (inconclusive)

## O=C(c1ccco1)N1CCC[C@@]2(CCN(c3cccc(-c4ccccc4)c3)C2)C1
Cytochrome P450 2D6
  AC50: 25.1 µM (inconclusive)

## CCOc1cc(N2CCOCC2)c(OCC)cc1NC(=O)c1ccc2ccccc2n1
[1]
  EC50: 2.63 µM (active)
[2]
  EC50: 7.58 µM (active)

## Fc1ccc(CN2CCCN(Cc3nc(-c4ccc5c(c4)OCO5)no3)CC2)cc1
[1]
  EC50: 0.103 µM (active)
[2]
  EC50: > 60 µM (inconclusive)

## O=[N+]([O-])c1cccc(S(=O)(=O)N2CCC(c3nc(-c4ccncc4)no3)CC2)c1
[1]
  EC50: 1.85 µM (active)
[2]
  EC50: > 30 µM (not active)

## Sc1nnc(C2CCCCC2)n1/N=C/c1cccs1
Cytochrome P450 1A2
  AC50: 2 µM (inconclusive)
Cytochrome P450 2C9
  AC50: 31.6 µM (inconclusive)

## COc1cccc(-c2nc(NCc3ccccc3OC)c3ccccc3n2)c1
Cytochrome P450 2D6
  AC50: 10 µM (inconclusive)
Cytochrome P450 2C9
  AC50: 1 µM (inconclusive)

## O=C1C=C(c2ccc(F)cc2OCc2ccccc2)C[C@@H](c2ccc(F)cc2)C1
[3]
  AC50: 0.964 µM (active)

## O=C1c2ccccc2C(=O)C1c1ccccc1 [PHENINDIONE]
Cytochrome P450 1A2
  AC50: 15.8 µM (inconclusive)

## Cc1cc2c(NCCc3ccccc3)ncnc2s1
INS1
  AC50: 1.98 µM (active)

## CCC(=O)c1cc(F)c(N2CCN(S(=O)(=O)c3ccc(C)cc3)CC2)cc1C
[1]
  EC50: 2.68 µM (active)
[2]
  EC50: > 60 µM (not active)
